{"source": "patent US7728036B2", "about": "“Methods for delivery of catecholic butanes for treatment of tumors” (priority 2003, dated 2010)", "key": {"[1]": {"test_system": "Hep3B hepatocellular carcinoma cells", "experiment": "Xenograft assay of human tumors in athymic nude mice, Hep3B", "type": "in vivo", "excerpt": "(§1) Xenograft Assay of Human Tumors.\n(§2) Control mice received vehicle only."}, "[2]": {"experiment": "Tissue distribution after long-term (14 weeks) oral feeding of M4N (HPLC)", "type": "in vivo, mice", "conditions": "14 weeks continuous oral feeding of M4N food balls", "experimental": "Tissue Distribution and Toxicity Analysis Following Short-Term and Long-Term Oral Feeding. For short-term feeding experiments, 30 mg of M4N dissolved in 300 μL castor oil was orally administered to each of 6 mice. At 2 h, 4 h, and 8 h post-administration time points, 2 mice were sacrificed, the organs and blood were collected, and the M4N extracted and quantitated as described below. In long-term feeding experiments, mice were fed food balls consisting of M4N dissolved in corn oil and Basal Mix (Harlan Teklad; Madison, Wis.; Cat. # TD 02273) for 14 weeks. Food balls weighed 9 g and contained 242 mg M4N each. Two mice, one male and one female, were reserved for long-term drug retention studies; and fourteen mice, both male and female, were used for long-term drug toxicity studies. At the end of feeding, mice were sacrificed, the organs and blood were collected, and the M4N extracted and quantitated as described below.\nM4N Extraction and HPLC Analysis Following Oral Feeding. Organs and blood were harvested from M4N-fed mice, then frozen overnight at −80° C. Prior to freezing, gastro-intestinal organs (stomach, small intestine, colon) were cut open longitudinally and washed thoroughly with PBS to remove any contents. The following day, organs were cut into small pieces on dry ice with a razor blade, dried in a Speed-vac, then crushed into a rough powder using a mortar and pestle. Samples were extracted overnight in 100% ethanol with shaking. Samples were centrifuged and the supernatant collected. Pellets were extracted two more times in 100% ethanol overnight with shaking. The pooled ethanol extracts were evaporated on bench top for several days, then re-extracted with ethyl acetate, and dried completely in a Speed-vac. The dried samples were then analyzed quantitatively by HPLC and M4N was identified by mass spectroscopy using pure M4N as a standard.\nHPLC Quantitation of M4N. Samples from a single mouse at each time point were sent to KP Pharmaceuticals (Bloomington, Ind.) for HPLC analysis. HPLC conditions were described as follows: 35%:0.1% TFA in H2O, 65%=“CAN.” The M4N standard was prepared by diluting 10.01 mg M4N in 100 mL of CAN, then sonicating for 5 min. (2002 ng/injection). The samples were prepared by adding 400 μL EtOH and sonicating for 2 min. or until complete dissolution was achieved. The injection volume for the samples was 100 μL.\nThe objective of the long-term feeding experiments was to measure the steady state levels of M4N in various mouse organs following continuous oral administration for 14 weeks. Food balls weighing approximately 9 g and containing approximately 280 mg M4N were continually fed to wild-type mice for 14 weeks. A single 9 g food ball is consumed by a single mouse in about 3 days, which translates to […] of M4N consumed or administered daily. […] Between 350 μg and 900 μg M4N per gram tissue was measured in the GI tract organs and the spleen; 15 μg/g to 30 μg/g M4N was measured in the lungs, pancreas, seminal vesicles, blood, and fat; and 5 μg/g to 13 μg/g M4N was measured in the heart, liver, kidneys, and bladder."}, "Solubility character": {"experiment": "Solubility character", "type": "physicochemical"}, "[3]": {"conditions": "mouse, in vivo", "protocol": "M4N Tissue Distribution Studies Using ^3H-M4N. Harlan ICR mice or C3 cell-induced tumor-bearing C57bl/6 mice were injected via tail vein or intraperitoneally with 100 μL of Cremaphor-ethanol based solvent containing 100 μCi of tritiated M4N and 60 mM of cold M4N. At the specified time post-injection, the mice were sacrificed, the organs and blood were collected, weighed, then dissolved overnight in 4 M guanidine isothiocyanate (GITC). The insoluble pellet was then further extracted with EtOH. Tritium content of both the GITC extract and the EtOH extract was measured on a Packard scintillation counter and the quantity of M4N in each organ was calculated based on the specific activity of the inoculum.\nTo determine the distribution of M4N in tissues over time following a single application, and also to assess the ability to deliver M4N to a distant tumor, six C3 cell-induced tumor bearing mice (A-F) were treated i.p. with ^3H-M4N as described above. At 4 hours, 6 hours, 18 hours, and 6 days post-injection, the quantities of ^3H-M4N in various tissues and the tumors were measured."}, "[4]": {"test_system": "HPV-16 transformed immortal mouse epithelial cells (C3)", "conditions": "intratumor injection; cited from earlier work"}, "[5]": {"test_system": "HT-29 colorectal carcinoma cells", "experiment": "Xenograft assay of human tumors in athymic nude mice, HT-29", "type": "in vivo", "excerpt": "as §1, §2"}, "[6]": {"conditions": "Hep 3B, of 7 M4N-treated tumors, 21 days i.p. treatment"}, "[7]": {"conditions": "HT-29, of 11 M4N-treated tumors, 21 days i.p. treatment"}}, "note": "Entries after “also recorded” stand apart in the source; their conditions may differ."}
{"compound": "COc1ccc(C[C@@H](C)[C@@H](C)Cc2ccc(OC)c(OC)c2)cc1OC", "note": "[M4N, meso-1,4-bis(3,4-dimethoxyphenyl)-2,3-dimethylbutane]", "values": [{"measurement": "Tumor Volume Increase (%) - 21 Days Treatment, M4N-Treatment", "setting": "[1]; Hep 3B xenograft, 2 mg M4N i.p. daily for 3 weeks", "value": 113, "unit": "%"}, {"measurement": "Ratio of Mean M4N-Treated Tumor Size to Control Tumor Size", "setting": "[1]; Hep 3B xenograft, 2 mg M4N i.p. daily, 21 days", "value": 19.3, "unit": "%"}, {"measurement": "Reduction in mean tumor volume versus control", "setting": "[1]; Hep 3B, after 21 days systemic M4N treatment", "value": 80, "unit": "%"}, {"measurement": "DOTV: number of tumors with decrease in volume from the original tumor volume", "setting": "[1]; [6]", "value": 2}, {"measurement": "IOTV: number of tumors with increase in volume from the original tumor volume", "setting": "[1]; [6]", "value": 5}, {"measurement": "M4N", "setting": "[2]; Bladder", "value": 6.24, "unit": "µg/g"}, {"measurement": "M4N", "setting": "[2]; Blood", "value": 23.13, "unit": "µg/g"}, {"measurement": "M4N", "setting": "[2]; Caecum", "value": 440.23, "unit": "µg/g"}, {"measurement": "M4N", "setting": "[2]; Fat", "value": 17.41, "unit": "µg/g"}, {"measurement": "M4N", "setting": "[2]; Heart", "value": 12.62, "unit": "µg/g"}, {"measurement": "M4N", "setting": "[2]; Kidneys", "value": 8.33, "unit": "µg/g"}, {"measurement": "M4N", "setting": "[2]; Lg. Intestine", "value": 350.88, "unit": "µg/g"}, {"measurement": "M4N", "setting": "[2]; Liver", "value": 5.89, "unit": "µg/g"}, {"measurement": "M4N", "setting": "[2]; Lungs", "value": 23.09, "unit": "µg/g"}, {"measurement": "M4N", "setting": "[2]; Pancreas", "value": 28.81, "unit": "µg/g"}, {"measurement": "M4N", "setting": "[2]; Seminal Vesicles", "value": 16.79, "unit": "µg/g"}, {"measurement": "M4N", "setting": "[2]; Small Intestine", "value": 906.27, "unit": "µg/g"}, {"measurement": "M4N", "setting": "[2]; Spleen", "value": 302.78, "unit": "µg/g"}, {"measurement": "M4N", "setting": "[2]; Stomach", "value": 409.27, "unit": "µg/g"}, {"measurement": "Solubility in dimethyl sulfoxide", "setting": "Solubility character", "value": "soluble in dimethyl sulfoxide"}, {"measurement": "Water solubility / hydrophilic or lipophilic character", "setting": "Solubility character", "value": "hydrophobic or lipophilic"}, {"measurement": "M4N tissue levels relative to levels seen at 6 hours", "setting": "[3]", "value": "5-10%"}, {"measurement": "M4N per gram of wet tumor", "setting": "[3]; ip", "value": "294 ng per gram of wet tumor"}, {"measurement": "Time of peak M4N tissue levels", "setting": "[3]; ip", "value": "approximately 6 hours"}, {"measurement": "Suppression of tumor growth / tumoricidal activity", "setting": "[4]", "value": "substantial tumoricidal activity; also recorded: some evidence of suppression of tumor growth"}, {"measurement": "Reduction in mean tumor volume versus control", "setting": "[5]; HT-29, after 21 days systemic M4N treatment", "value": 70, "unit": "%"}, {"measurement": "DOTV: number of tumors with decrease in volume from the original tumor volume", "setting": "[5]; [7]", "value": 3}, {"measurement": "IOTV: number of tumors with increase in volume from the original tumor volume", "setting": "[5]; [7]", "value": 8}, {"measurement": "Tumor Volume Increase (%) - 21 Days Treatment, M4N-Treatment", "setting": "[5]; HT-29 xenograft, 2 mg M4N i.p. daily for 3 weeks", "value": 787, "unit": "%"}, {"measurement": "Ratio of Mean M4N-Treated Tumor Size to Control Tumor Size", "setting": "[5]; HT-29 xenograft, 2 mg M4N i.p. daily, 21 days", "value": 29.4, "unit": "%"}]}
